Measurements taken from publication PMC11312515, “Biochemical and Structural Characterization of a Novel Psychrophilic Laccase (Multicopper Oxidase) Discovered from Oenococcus oeni 229 (ENOLAB 4002)” (International Journal of Molecular Sciences, 2024).

T1: LcOe 229 (Oenococcus oeni, UniProt Q04HQ8)
T1 construct: gene OEOE_0009
T1 sequence (Q04HQ8 1-488): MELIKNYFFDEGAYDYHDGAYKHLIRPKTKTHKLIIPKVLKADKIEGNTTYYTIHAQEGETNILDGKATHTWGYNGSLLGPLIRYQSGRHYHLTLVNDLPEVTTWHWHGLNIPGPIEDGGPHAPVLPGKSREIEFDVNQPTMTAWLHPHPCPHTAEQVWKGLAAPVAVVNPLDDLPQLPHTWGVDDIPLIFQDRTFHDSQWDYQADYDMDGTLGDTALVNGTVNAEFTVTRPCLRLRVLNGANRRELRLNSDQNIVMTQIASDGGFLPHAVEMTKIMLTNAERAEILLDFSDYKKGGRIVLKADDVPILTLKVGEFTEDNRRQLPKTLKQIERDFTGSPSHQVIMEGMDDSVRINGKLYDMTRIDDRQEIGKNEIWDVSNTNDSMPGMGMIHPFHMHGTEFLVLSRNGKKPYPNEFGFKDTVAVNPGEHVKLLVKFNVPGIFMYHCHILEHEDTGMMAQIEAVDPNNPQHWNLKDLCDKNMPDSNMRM

B1: LcOe 229 (Oenococcus oeni PSU-1) (protein)
chain: T1 sequence (Q04HQ8 1-488)
notes: full length, 488 residues, 55544 Da, in pET-28a(+) NheI/BamHI, N-terminal His tag (thrombin-cleavable; cleavage told for crystallography), E. coli BL21(DE3)/pGro7; Ni-NTA; monomer; PCR fragment given as 1641 bp

Tests used:
LcOe 229 [1] = biological target: T1, LcOe 229; type: biochemical; conditions: 2 mM ABTS, 0.1 mM CuSO4, McIlvaine buffer pH 2.5
LcOe 229 [2] = biological target: T1, LcOe 229; conditions: read-out: % residual activity at 1 mM
[3] = substrate: COc1cccc(OC)c1O; assay: oxidation followed at OD468, microplate, initial rates; type: biochemical, Oenococcus oeni; conditions: McIlvaine buffer pH 8, 24 °C, hyperbolic

Molecule | % residual activity at 1 mM (LcOe 229 [1]) | remaining activity at 1000 µM (LcOe 229 [2]) [%] | further results
C#CCN(C)C(C)Cc1ccccc1 (stereo not drawn) [deprenyl] | observed with ZnCl2, EDTA, pargyline, EDC, deprenyl, clorgyline, and NaCl | – | –
NNC(N)=O [semicarbazide] | – | < 15 | –
C#CCN(C)Cc1ccccc1 [pargyline] | observed with ZnCl2, EDTA, pargyline, EDC, deprenyl, clorgyline, and NaCl | – | –
c1ccc(-c2ccccn2)nc1 [2,2′-bipyridyl] | – | 94 | –
C#CCN[C@@H]1CCc2ccccc21 [rasagiline] | – | 65 | –
NC1CC1 [cyclopropylamine] | – | 77 | –
C#CCN(C)CCCOc1ccc(Cl)cc1Cl [clorgyline] | observed with ZnCl2, EDTA, pargyline, EDC, deprenyl, clorgyline, and NaCl | – | –
CCN=C=NCCCN(C)C [EDC] | observed with ZnCl2, EDTA, pargyline, EDC, deprenyl, clorgyline, and NaCl | – | –
B1 | – | – | Km [3]: 0.73 (±0.17) mM; Vmax [3]: 0.01 µmol/min/mg; kcat [3]: 0.01 s⁻¹; kcat/Km [3]: 10 M⁻¹ s⁻¹
